From PubChem BioAssay AID220 (DTP/NCI, 2004)
Values joined by “and” are separate entries in the source; they are usually repeats but may differ in a detail not shown here. Equal entries are not always repeated. Records with an inconclusive call do not appear.

System: CD8F1 mice, subcutaneous mammary adenocarcinoma, T/C%
Test: NCI In Vivo Anticancer Drug Screen. Data for tumor model Mammary Adenocarcinoma CD8F1 (subcutaneous) in CD8F1
Conditions: higher = larger tumour
Outline: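 Antitumor activity is assessed in transplantable-tumor mice by comparing the treated group with a vehicle-treated control group. Survival or tumor size serves as the measure, reported as T divided by C.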

[1] = endpoint: median tumor weight (est.), dose: 100.0 mg/kg/injection, schedule: Q07DX005 (ip), vehicle: saline
[2] = endpoint: median tumor weight change, dose: 62.5 mg/kg/injection, schedule: Q01DX001 (ip), vehicle: saline with Tween-80
[3] = endpoint: median tumor weight change, dose: 125.0 mg/kg/injection, schedule: Q01DX001 (ip), vehicle: saline with Tween-80
[4] = endpoint: median tumor weight change, dose: 250.0 mg/kg/injection, schedule: Q01DX001 (ip), vehicle: saline with Tween-80
[5] = endpoint: median tumor weight change, dose: 500.0 mg/kg/injection, schedule: Q01DX001 (ip), vehicle: saline with Tween-80

With `COC(C(=O)C(O)C(C)O)C1CC2C=C3C=C(OC4CC(OC5CC(O)C(OC)C(C)O5)C(OC(C)=O)C(C)O4)C(C)C(=O)C3=C(O)C2=C(O)C1OC1CC(OC2CC(OC3CC(C)(O)C(OC(=O)C(C)C)C(C)O3)C(O)C(C)O2)C(O)C(C)O1` (stereo unspecified) the T/C (endpoint: median tumor weight (est.), dose: 25.0 micrograms/kg/injection, schedule: Q07DX005 (ip), vehicle: saline) was 74 % of control, the T/C (endpoint: median tumor weight (est.), dose: 50.0 micrograms/kg/injection, schedule: Q07DX005 (ip), vehicle: saline) was 78 % of control and the T/C (endpoint: median tumor weight (est.), dose: 100.0 micrograms/kg/injection, schedule: Q07DX005 (ip), vehicle: saline) was 65 % of control. For the same compound, the T/C (endpoint: median tumor weight (est.), dose: 200.0 micrograms/kg/injection, schedule: Q07DX005 (ip), vehicle: saline) was 48 % of control and the T/C (endpoint: median tumor weight (est.), dose: 400.0 micrograms/kg/injection, schedule: Q07DX005 (ip), vehicle: saline) was 73 % of control.

In the case of `O=C1OC(C(O)CO)C(O)=C1O` (stereo unspecified), the T/C [1] is reported as 70 % of control, the T/C (endpoint: median tumor weight (est.), dose: 200.0 mg/kg/injection, schedule: Q07DX005 (ip), vehicle: saline) is reported as 28 % of control and the T/C (endpoint: median tumor weight (est.), dose: 400.0 mg/kg/injection, schedule: Q07DX005 (ip), vehicle: saline) is reported as 110 % of control. For the same compound, the T/C (endpoint: median tumor weight (est.), dose: 800.0 mg/kg/injection, schedule: Q07DX005 (ip), vehicle: saline) was 61 % of control.

With `Cc1c(N)nc(C(CC(N)=O)NCC(N)C(N)=O)nc1C(=O)NC(C(=O)NC(C)C(O)C(C)C(=O)NC(C(=O)NCCc1nc(-c2nc(C(=O)NCCCNCCCc3ccccn3)cs2)cs1)C(C)O)C(OC1OC(CO)C(O)C(O)C1OC1OC(CO)C(O)C(OC(N)=O)C1O)c1cnc[nH]1` (stereo unspecified) the T/C (endpoint: median tumor weight (est.), dose: 0.37 mg/kg/injection, schedule: Q07DX005 (ip), vehicle: water) was 45 % of control, the T/C (endpoint: median tumor weight (est.), dose: 0.75 mg/kg/injection, schedule: Q07DX005 (ip), vehicle: water) was 76 % of control and the T/C (endpoint: median tumor weight (est.), dose: 1.5 mg/kg/injection, schedule: Q07DX005 (ip), vehicle: water) was 104 % of control. The T/C (endpoint: median tumor weight (est.), dose: 3.2 mg/kg/injection, schedule: Q07DX005 (ip), vehicle: water) was 101 % of control, the T/C (endpoint: median tumor weight (est.), dose: 3.5 mg/kg/injection, schedule: Q07DX005 (ip), vehicle: water) was 166 % of control and the T/C (endpoint: median tumor weight (est.), dose: 6.0 mg/kg/injection, schedule: Q07DX005 (ip), vehicle: water) was 100 % of control. For the same compound, the T/C (endpoint: median tumor weight (est.), dose: 6.4 mg/kg/injection, schedule: Q07DX005 (ip), vehicle: water) was 52 % of control, the T/C (endpoint: median tumor weight (est.), dose: 7.0 mg/kg/injection, schedule: Q07DX005 (ip), vehicle: water) was 104 % of control and the T/C (endpoint: median tumor weight (est.), dose: 12.8 mg/kg/injection, schedule: Q07DX005 (ip), vehicle: water) was 12 % of control. For the same compound, the T/C (endpoint: median tumor weight (est.), dose: 14.0 mg/kg/injection, schedule: Q07DX005 (ip), vehicle: water) was 53 % of control and the T/C (endpoint: median tumor weight (est.), dose: 28.0 mg/kg/injection, schedule: Q07DX005 (ip), vehicle: water) was 3 % of control.

In the case of `Nc1nnc[se]1`, the T/C (endpoint: median tumor weight change, dose: 15.6 mg/kg/injection, schedule: Q01DX001 (ip), vehicle: saline with Tween-80) is reported as 80 % of control, the T/C (endpoint: median tumor weight change, dose: 31.25 mg/kg/injection, schedule: Q01DX001 (ip), vehicle: saline with Tween-80) is reported as 123 % of control and the T/C [2] is reported as 84 % of control. The T/C [3] was 94 % of control, the T/C [4] was 50 % of control and the T/C [5] was 38 % of control.

In the case of `COc1ccc(-c2csc(=[N+]3CCCCC3)s2)cc1`, the T/C (endpoint: median tumor weight change, dose: 31.0 mg/kg/injection, schedule: Q01DX001 (ip), vehicle: saline with Tween-80) is reported as 194 % of control and the T/C (endpoint: median tumor weight change, dose: 31.0 mg/kg/injection, schedule: Q01DX001 (ip), vehicle: water) is reported as 75 % of control.

With `CCCCCCCCCCCCCC#CC(=O)O` the T/C [2] was 75 % of control and 95 % of control, the T/C [3] was 68 % of control and 81 % of control and the T/C [4] was 72 % of control. For the same compound, the T/C [5] was 78 % of control.

`CC[C@@]1(O)C[C@H](OC2CC(N(C)C)C(OC3CC(O)C(OC4CC(O)C(O)C(C)O4)C(C)O3)C(C)O2)c2c(cc3c(c2O)C(=O)c2c(O)ccc(O)c2C3=O)[C@H]1C(=O)OC` (stereo partly specified) was tested, and the T/C (endpoint: median tumor weight (est.), dose: 0.75 mg/kg/injection, schedule: Q07DX005 (ip), vehicle: other) was 122 % of control and the T/C (endpoint: median tumor weight (est.), dose: 3.0 mg/kg/injection, schedule: Q07DX005 (ip), vehicle: other) was 84 % of control.

`CC1(C)N=C(N)N=C(N)N1c1ccc(F)c(C(F)(F)F)c1` was tested, and the T/C (endpoint: median tumor weight (est.), dose: 6.25 mg/kg/injection, schedule: Q07DX005 (ip), vehicle: saline) was 97 % of control and the T/C [1] was 61 % of control.

`CS(=O)(=O)OCCN(CCOS(C)(=O)=O)c1ccc(C=Nc2ccc(-c3csc(COc4ccccc4)n3)cc2)cc1` was tested, and the T/C (endpoint: median tumor weight (est.), dose: 6.25 mg/kg/injection, schedule: Q07DX005 (ip), vehicle: Klucel (hydroxypropylcellulose) (HPC)) was 88 % of control, the T/C (endpoint: median tumor weight (est.), dose: 12.5 mg/kg/injection, schedule: Q07DX005 (ip), vehicle: Klucel (hydroxypropylcellulose) (HPC)) was 97 % of control and 103 % of control and the T/C (endpoint: median tumor weight (est.), dose: 25.0 mg/kg/injection, schedule: Q07DX005 (ip), vehicle: Klucel (hydroxypropylcellulose) (HPC)) was 75 % of control and 79 % of control. For the same compound, the T/C (endpoint: median tumor weight (est.), dose: 50.0 mg/kg/injection, schedule: Q07DX005 (ip), vehicle: Klucel (hydroxypropylcellulose) (HPC)) was 83 % of control and the T/C (endpoint: median tumor weight (est.), dose: 100.0 mg/kg/injection, schedule: Q07DX005 (ip), vehicle: Klucel (hydroxypropylcellulose) (HPC)) was 27 % of control and 44 % of control.
